Experimental data from ChEMBL document CHEMBL4376829, “Discovery and biological evaluation of vinylsulfonamide derivatives as highly potent, covalent TEAD autopalmitoylation inhibitors” (Eur J Med Chem, 2019).
The source made the active and inactive calls. No cut-off for these calls is given here.

Columns and labels:
[1] = target: Mitogen-activated protein kinase kinase kinase 9 (Homo sapiens) (UniProt P80192); assay: Inhibition of recombinant human MLK1 (134 to 414 residues) at 10 uM using casein as substrate measured after 40 mins in presence of [gamma33P]ATP by scintillation counting method relative to control
[2] = target: Serine/threonine-protein kinase Nek1 (Homo sapiens) (UniProt Q96PY6); assay: Inhibition of recombinant human NEK1 (1 to 505 residues) at 10 uM using RLGRDKYKTLRQIRQ as substrate measured after 40 mins in presence of [gamma33P]ATP by scintillation counting method relative to control
[3] = target: Tyrosine-protein kinase Lck (Homo sapiens) (UniProt P06239); assay: Inhibition of recombinant full-length human LCK at 10 uM using KVEKIGEGTYGVVYK as substrate measured after 40 mins in presence of [gamm33P]ATP by scintillation counting method relative to control
Homo sapiens [4] = species on record: Homo sapiens; assay: Inhibition of TEAD transcriptional activity in human HCT116 cells assessed as reduction in CTGF expression by qRT-PCR analysis; type: cell-based
[5] = target: Serine/threonine-protein kinase 3 (Homo sapiens) (UniProt Q13188); assay: Inhibition of recombinant full-length human MST2 (2 to end residues) at 10 uM using myelin basic protein as substrate measured after 40 mins in presence of [gamma33P]ATP by scintillation counting method relative to control
[6] = CoA reactivity in PBS assessed as CoA adduct formation at 1 mM after 8 hrs by UPLC-MS analysis
Homo sapiens [7] = species on record: Homo sapiens; assay: Inhibition of TEAD (unknown origin) expresssed in HEK293T cells assessed as reduction in luciferase activity at 10 to 20 uM by dual-luciferase reporter gene assay; type: cell-based
[8] = target: Serine/threonine-protein kinase B-raf (Homo sapiens) (UniProt P15056); assay: Inhibition of recombinant human BRAF (416 to end residues) at 10 uM using myelin basic protein as substrate after 40 mins in presence of [gamma33P]ATP by scintillation counting method relative to control
[9] = target: Proto-oncogene tyrosine-protein kinase Src (Homo sapiens) (UniProt P12931); assay: Inhibition of recombinant full length human cSRC at 10 uM using KVEKIGEGTYGVVYK as substrate measured after 40 mins in presence of [gamma33P]ATP by scintillation counting method relative to control
[10] = target: Serine/threonine-protein kinase VRK1 (Homo sapiens) (UniProt Q99986); assay: Inhibition of human VRK1 at 10 uM by radiometric assay relative to control
[11] = target: Transcriptional enhancer factor TEF-3 (Homo sapiens, UniProt Q15561); assay: Binding affinity to N-terminal His6-tagged human TEAD4-YBD (217 to 434 residues) expressed in Escherichia coli C43 (DE3) cells assessed as change in melting temperature at 1:1 ratio by SYPRO-dye based thermal shift assay
[12] = target: Eukaryotic translation initiation factor 2-alpha kinase 3 (Homo sapiens) (UniProt Q9NZJ5); assay: Inhibition of recombinant human PEK (536 to end residues) at 10 uM using RSRSRSRSRSRSRSR as substrate measured after 40 mins in presence of [gamma33P]ATP by scintillation counting method relative to control
[13] = system: eIF-2-alpha kinase GCN2 (Homo sapiens), Q9P2K8 [E556G]; assay: Inhibition of full length recombinant human GCN2 E556G mutant at 10 uM using RSRSRSRSRSRSRSR as substrate after 40 mins in presence of [gamma33P]ATP by scintillation counting method relative to control
Saccharomyces cerevisiae = assay: Inhibition of recombinant fungi CK1 (2 to 298 residues) at 10 uM using KRRRALS(p)VAS as substrate incubated for 40 mins in presence of [gamma-33P]-ATP by scintillation counting method relative to control
[14] = target: Fatty acid-binding protein, heart (Homo sapiens) (UniProt P05413); assay: Binding affinity to FABP3 (unknown origin) at 1:1 ratio by fluorescence based thermal shift assay
[15] = system: Transcriptional enhancer factor TEF-3 (Homo sapiens), Q15561 [C335A]; assay: Binding affinity to TEAD4-YBD C335A mutant (unknown origin) assessed as change in melting temperature by SYPRO-dye based thermal shift assay
[16] = target: Mitogen-activated protein kinase kinase kinase 5 (Homo sapiens) (UniProt Q99683); assay: Inhibition of recombinant human ASK1 (649 to 946 residues) at 10 uM using myelin basic protein as substrate measured after 40 mins in presence of [gamma33P]ATP by scintillation counting method relative to control
Homo sapiens [17] = species on record: Homo sapiens; assay: Inhibition of human Ros V2262A mutant(1883 to end residues) at 10 uM using KKKSPGEYVNIEFG as substrate measured after 40 mins in presence of [gamma33P]ATP by scintillation counting method relative to control
[18] = target: Insulin receptor (Homo sapiens) (UniProt P06213); assay: Inhibition of recombinant human IR (1005 to 1310 residues) at 10 uM using KKSRGDYMTMQIG as substrate after 40 mins in presence of [gamma33P]ATP by scintillation counting method relative to control
[19] = target: Tyrosine-protein kinase Fer (Homo sapiens) (UniProt P16591); assay: Inhibition of recombinant human FER (541 to end residues) at 10 uM using KKKSPGEYVNIEFG as substrate measured after 40 mins in presence of [gamma33P]ATP by scintillation counting method relative to control
[20] = target: Serine/threonine-protein kinase 26 (Homo sapiens) (UniProt Q9P289); assay: Inhibition of recombinant human MST4 (4 to 304 residues) at 10 uM using RLGRDKYKTLRQIRQ as substrate measured after 40 mins in presence of [gamma33P]ATP by scintillation counting method relative to control
[21] = target: 5'-AMP-activated protein kinase catalytic subunit alpha-1 (Homo sapiens) (UniProt Q13131); assay: Inhibition of recombinant full length human AMPKalpha1 at 10 uM using AMARAASAAALARRR as substrate after 40 mins in presence of [gamma33P]ATP by scintillation counting method relative to control
[22] = target: Tyrosine-protein kinase CSK (Homo sapiens) (UniProt P41240); assay: Inhibition of recombinant full length human CSK at 10 uM using poly(Glu,Tyr) as substrate measured after 40 mins in presence of [gamma33P]ATP by scintillation counting method relative to control
[23] = target: Histone acetyltransferase KAT2A (Homo sapiens) (UniProt Q92830); assay: Inhibition of human GCN5 at 10 uM after 1 hr by radioisotope-based assay relative to control
Homo sapiens [24] = species on record: Homo sapiens; assay: Inhibition of recombinant full length human Aurora A I31F mutant at 10 uM using LRRASLG as substrate incubated for 40 mins in presence of [gamma-33P]-ATP by scintillation counting method relative to control
[25] = system: RAC-gamma serine/threonine-protein kinase (Homo sapiens), Q9Y243 [S472D]; assay: Inhibition of recombinant human PKBgamma S472D mutant (117 to end residues) at 10 uM using GRPRTSSFAEGKK as substrate after 40 mins by in presence of [gamma33P]ATP by scintillation counting method relative to control
Chain of RAC-gamma serine/threonine-protein kinase (Homo sapiens), Q9Y243 [S472D] (Q9Y243 whole entry S472D): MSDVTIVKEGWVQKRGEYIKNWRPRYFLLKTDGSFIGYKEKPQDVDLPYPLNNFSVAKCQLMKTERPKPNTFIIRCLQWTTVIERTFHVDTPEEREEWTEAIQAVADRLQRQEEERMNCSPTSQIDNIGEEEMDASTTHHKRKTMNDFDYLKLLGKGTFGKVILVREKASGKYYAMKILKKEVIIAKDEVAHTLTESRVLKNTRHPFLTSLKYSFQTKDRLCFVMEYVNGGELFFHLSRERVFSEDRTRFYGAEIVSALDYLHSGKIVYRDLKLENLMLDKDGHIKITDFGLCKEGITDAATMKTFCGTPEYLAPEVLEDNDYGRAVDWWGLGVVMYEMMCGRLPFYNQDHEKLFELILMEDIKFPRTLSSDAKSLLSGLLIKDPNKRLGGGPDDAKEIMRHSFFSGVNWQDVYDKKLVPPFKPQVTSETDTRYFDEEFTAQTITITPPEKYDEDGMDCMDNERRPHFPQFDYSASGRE

Chain of Histone acetyltransferase KAT2A (Homo sapiens) (Q92830 2-837 limits assumed): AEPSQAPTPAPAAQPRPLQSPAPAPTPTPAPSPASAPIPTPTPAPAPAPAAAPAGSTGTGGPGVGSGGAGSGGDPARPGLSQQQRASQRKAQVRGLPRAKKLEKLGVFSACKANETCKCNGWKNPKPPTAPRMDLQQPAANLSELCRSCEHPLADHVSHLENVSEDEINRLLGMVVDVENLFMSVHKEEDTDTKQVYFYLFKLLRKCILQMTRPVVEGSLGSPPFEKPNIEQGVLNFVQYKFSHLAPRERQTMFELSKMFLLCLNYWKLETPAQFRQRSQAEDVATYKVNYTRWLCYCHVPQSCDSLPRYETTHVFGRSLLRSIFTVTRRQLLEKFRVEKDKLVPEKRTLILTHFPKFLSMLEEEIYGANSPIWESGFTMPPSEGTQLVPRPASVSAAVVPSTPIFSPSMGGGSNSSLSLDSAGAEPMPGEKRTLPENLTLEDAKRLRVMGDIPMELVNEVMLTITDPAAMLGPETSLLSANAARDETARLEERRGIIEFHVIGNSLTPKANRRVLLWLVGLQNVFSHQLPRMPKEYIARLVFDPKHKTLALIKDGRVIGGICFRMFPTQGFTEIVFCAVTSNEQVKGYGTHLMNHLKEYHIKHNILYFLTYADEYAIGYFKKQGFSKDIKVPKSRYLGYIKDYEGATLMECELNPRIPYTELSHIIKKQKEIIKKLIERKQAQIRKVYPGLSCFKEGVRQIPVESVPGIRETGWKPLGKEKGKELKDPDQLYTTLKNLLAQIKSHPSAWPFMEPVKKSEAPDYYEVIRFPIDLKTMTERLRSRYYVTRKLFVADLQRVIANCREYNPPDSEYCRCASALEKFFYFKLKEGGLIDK
Chain of Transcriptional enhancer factor TEF-3 (Q15561 whole entry, the tested form may be a part): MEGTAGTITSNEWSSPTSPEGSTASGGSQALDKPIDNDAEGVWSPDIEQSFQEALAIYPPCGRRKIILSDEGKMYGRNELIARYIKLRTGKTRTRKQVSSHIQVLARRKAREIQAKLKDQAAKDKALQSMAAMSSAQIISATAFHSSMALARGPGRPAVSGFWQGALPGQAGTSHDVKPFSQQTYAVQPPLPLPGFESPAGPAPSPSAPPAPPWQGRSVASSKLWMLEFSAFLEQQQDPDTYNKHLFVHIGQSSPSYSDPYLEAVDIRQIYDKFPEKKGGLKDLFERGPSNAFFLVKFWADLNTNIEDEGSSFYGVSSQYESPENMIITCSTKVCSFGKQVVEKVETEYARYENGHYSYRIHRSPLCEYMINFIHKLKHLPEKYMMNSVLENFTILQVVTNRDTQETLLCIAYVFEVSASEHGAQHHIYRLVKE
Chain of Insulin receptor (Homo sapiens) (P06213 28-758 limits assumed): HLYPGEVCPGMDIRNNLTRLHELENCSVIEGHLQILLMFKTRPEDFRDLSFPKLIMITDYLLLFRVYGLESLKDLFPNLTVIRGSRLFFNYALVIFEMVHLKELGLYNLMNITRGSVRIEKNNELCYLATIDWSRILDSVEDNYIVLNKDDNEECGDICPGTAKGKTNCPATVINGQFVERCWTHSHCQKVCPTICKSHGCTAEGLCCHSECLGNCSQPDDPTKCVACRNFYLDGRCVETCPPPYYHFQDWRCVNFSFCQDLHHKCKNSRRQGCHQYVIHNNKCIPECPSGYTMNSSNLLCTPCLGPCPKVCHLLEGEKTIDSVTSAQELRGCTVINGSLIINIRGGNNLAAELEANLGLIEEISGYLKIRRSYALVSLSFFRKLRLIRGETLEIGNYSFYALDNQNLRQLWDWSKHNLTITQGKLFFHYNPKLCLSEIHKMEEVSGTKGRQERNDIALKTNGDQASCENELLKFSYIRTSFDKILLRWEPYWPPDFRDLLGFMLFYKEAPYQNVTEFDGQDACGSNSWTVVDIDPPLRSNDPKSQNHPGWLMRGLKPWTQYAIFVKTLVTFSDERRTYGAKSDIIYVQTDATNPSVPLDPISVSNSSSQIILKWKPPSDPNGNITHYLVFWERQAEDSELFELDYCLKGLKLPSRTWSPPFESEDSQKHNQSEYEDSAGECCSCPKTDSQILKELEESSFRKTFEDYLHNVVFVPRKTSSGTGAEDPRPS
Chain of Insulin receptor (Homo sapiens) (P06213 763-1382 limits assumed): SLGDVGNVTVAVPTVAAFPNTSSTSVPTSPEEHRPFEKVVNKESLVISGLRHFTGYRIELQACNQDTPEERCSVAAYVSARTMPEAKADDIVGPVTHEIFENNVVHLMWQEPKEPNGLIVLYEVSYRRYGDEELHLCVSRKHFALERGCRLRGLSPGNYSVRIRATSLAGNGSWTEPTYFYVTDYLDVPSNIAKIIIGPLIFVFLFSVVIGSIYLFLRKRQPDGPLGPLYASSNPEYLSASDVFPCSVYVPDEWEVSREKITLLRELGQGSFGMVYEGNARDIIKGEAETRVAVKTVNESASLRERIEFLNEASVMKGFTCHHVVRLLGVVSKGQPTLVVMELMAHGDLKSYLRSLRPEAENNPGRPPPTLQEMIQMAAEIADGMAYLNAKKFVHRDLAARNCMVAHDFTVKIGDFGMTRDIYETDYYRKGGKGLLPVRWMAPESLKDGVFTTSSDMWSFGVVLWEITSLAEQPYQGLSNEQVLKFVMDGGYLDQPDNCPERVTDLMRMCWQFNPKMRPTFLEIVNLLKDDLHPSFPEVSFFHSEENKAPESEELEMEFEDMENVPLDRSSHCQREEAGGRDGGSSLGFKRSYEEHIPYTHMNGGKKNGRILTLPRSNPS
Chain of Tyrosine-protein kinase CSK (Homo sapiens) (P41240 2-450 limits assumed): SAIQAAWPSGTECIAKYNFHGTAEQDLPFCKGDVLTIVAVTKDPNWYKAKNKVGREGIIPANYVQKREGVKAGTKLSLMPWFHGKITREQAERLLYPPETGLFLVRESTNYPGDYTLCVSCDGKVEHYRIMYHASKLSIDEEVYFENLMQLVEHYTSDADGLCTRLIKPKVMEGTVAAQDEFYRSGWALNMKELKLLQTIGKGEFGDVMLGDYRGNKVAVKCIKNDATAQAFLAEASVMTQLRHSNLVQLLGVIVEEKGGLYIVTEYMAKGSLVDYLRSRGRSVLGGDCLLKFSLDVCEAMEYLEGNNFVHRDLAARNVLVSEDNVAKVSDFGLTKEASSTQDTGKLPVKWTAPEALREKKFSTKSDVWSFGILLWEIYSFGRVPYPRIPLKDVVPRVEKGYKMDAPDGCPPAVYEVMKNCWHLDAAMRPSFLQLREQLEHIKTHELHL
Chain of 5'-AMP-activated protein kinase catalytic subunit alpha-1 (Homo sapiens) (Q13131 whole entry, looked up): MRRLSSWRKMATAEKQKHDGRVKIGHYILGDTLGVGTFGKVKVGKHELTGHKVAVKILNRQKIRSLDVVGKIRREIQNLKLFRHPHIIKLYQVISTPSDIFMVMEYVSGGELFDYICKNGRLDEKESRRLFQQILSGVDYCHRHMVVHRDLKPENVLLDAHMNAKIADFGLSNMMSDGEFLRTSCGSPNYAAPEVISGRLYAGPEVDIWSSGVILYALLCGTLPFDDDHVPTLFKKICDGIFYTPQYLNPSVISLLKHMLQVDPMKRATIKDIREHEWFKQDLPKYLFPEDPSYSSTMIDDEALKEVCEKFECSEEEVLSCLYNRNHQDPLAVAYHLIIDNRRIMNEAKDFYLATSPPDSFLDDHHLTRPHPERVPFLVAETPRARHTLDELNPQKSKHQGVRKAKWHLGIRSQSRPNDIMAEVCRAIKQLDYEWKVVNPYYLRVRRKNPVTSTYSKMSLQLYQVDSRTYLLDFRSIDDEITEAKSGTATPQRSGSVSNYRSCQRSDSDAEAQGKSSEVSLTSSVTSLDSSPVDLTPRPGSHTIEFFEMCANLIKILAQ
Chain of Fatty acid-binding protein, heart (Homo sapiens) (P05413 2-133 limits assumed): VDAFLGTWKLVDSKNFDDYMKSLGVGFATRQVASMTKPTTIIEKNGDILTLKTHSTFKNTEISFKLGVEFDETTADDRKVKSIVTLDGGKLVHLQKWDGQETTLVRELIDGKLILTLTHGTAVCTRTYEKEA
Chain of Serine/threonine-protein kinase 26 (Homo sapiens) (Q9P289 2-416 limits assumed): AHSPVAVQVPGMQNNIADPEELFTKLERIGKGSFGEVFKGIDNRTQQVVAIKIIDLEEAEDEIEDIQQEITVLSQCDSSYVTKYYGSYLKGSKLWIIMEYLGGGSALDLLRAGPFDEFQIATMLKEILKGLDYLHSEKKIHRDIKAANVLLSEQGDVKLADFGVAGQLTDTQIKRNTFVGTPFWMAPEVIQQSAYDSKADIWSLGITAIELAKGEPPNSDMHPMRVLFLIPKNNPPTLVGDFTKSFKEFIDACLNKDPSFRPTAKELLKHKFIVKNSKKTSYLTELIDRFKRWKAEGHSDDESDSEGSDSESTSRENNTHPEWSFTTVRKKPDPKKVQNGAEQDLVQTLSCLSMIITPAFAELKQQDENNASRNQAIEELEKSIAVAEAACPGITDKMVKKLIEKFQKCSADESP
Chain of Transcriptional enhancer factor TEF-3 (Homo sapiens), Q15561 [C335A] (Q15561 whole entry C335A, the tested form may be a part): as the sequence (Q15561 whole entry, the tested form may be a part) above, with C335A counted along it

With `C=CS(=O)(=O)Nc1ccc(Cc2ccc3ccccc3c2)cc1` as the compound, how does the inhibition [1] read?
Its inhibition is 8%.

What about the inhibition [2] of the same compound?
The inhibition was -6%.

And the inhibition [3]?
The inhibition was 6%.

What about the inhibition (Homo sapiens [4]) of the same compound?
Its inhibition is “Dose-dependent effect”.

What about the inhibition [5] of the same compound?
The inhibition was 2%.

And the Activity [6]?
The Activity was “inactive”.

What about the inhibition (Homo sapiens [7]) of the same compound?
Its inhibition is “Active”.

And the inhibition [8]?
Its inhibition is -8%.

What about the inhibition [9] of the same compound?
Its inhibition is -4%.

What about the inhibition [10] of the same compound?
Its inhibition is 3%.

And the ΔTm [11]?
The ΔTm was 7 to 7.2 °C.

And the inhibition [12]?
Its inhibition is -1%.

What about the inhibition [13] of the same compound?
Its inhibition is 3%.

And the inhibition (Saccharomyces cerevisiae)?
The inhibition was 5%.

And the Activity [14]?
The Activity was “Active”.

And the ΔTm [15]?
The ΔTm was 5.2 °C.

What about the inhibition [16] of the same compound?
Its inhibition is 13%.

What about the inhibition (Homo sapiens [17]) of the same compound?
The inhibition was -6%.

What about the inhibition [18] of the same compound?
Its inhibition is -10%.

And the inhibition [19]?
The inhibition was 9%.

What about the inhibition [20] of the same compound?
Its inhibition is 1%.

And the inhibition [21]?
The inhibition was 2%.

What about the inhibition [22] of the same compound?
Its inhibition is -1%.

And the inhibition [23]?
Its inhibition is 2%.

What about the inhibition (Homo sapiens [24]) of the same compound?
The inhibition was -10%.

And the inhibition [25]?
The inhibition was 8%.
